Measured values published in patent US8741905B2, “Compounds and methods for treating autoimmune diseases” (The Broad Institute, Inc., priority 2010, dated 2014).

Legend:
[1] = tested on: INS-1E cells; assay: Cellular ATP levels (CellTiter-Glo) in cytokine-treated INS-1E cells; suppression of cytokine-induced beta-cell apoptosis; format: cell-based, rat
Method: The compounds were analyzed for activity utilizing methods described in Chou et al. (ACS Chem. Biol. 2010 Aug. 20; 5(8):729-34).
INS-1E cells were seeded at 10,000 cells per well using a Multidrop Combi (Thermo Labsystems) in white optical 384-well plates (Corning Life Sciences). After overnight incubation, medium was removed and 50 μL of RPMI containing 1% FBS and a combination of cytokines (10 ng mL-^1 IL-1β, 50 ng mL^−1 IFN-γ, 25 ngmL^−1 TNF-α) was added to every well. Using libraries of compounds dissolved in DMSO and a CyBi-Well pin-transfer robot (CyBio Corp.), 0.1 μL of each compound was added. After 48 h, medium was removed and 20 μL of CellTiter-Glo reagent was added. Luminescence was measured after 10 min of incubation using an EnVision plate reader (PerkinElmer).
Instrument output files were processed using Pipeline Pilot (Accelrys) and input to MATLAB (The MathWorks) for data normalization. Compound performance scores relative to a distribution of mock-treated (DMSO) wells were calculated using a revised version of the scoring system underlying ChemBank. (Seiler et al., Nucleic Acids Res. 36, D351-359, 2008). The role of replicate treatments was further developed as follows: first, mock-treatment distributions were modeled using all mock-treated wells measured on a single day, regardless of their nominal replicate; second, per-compound scores weighted each in-plate background-subtracted measurement by the uncertainty in that measurement, using the method of maximum likelihood. The uncertainty in a single background-subtracted measurement was estimated using the number of mock-treated wells on the plate and, as a measure of the assay noise, the standard deviation of the per-day mock-treatment distribution. The signal, a weighted average of differences, was scaled by the noise, the standard deviation of the mock treatment distribution.
INS-1E cells were seeded at 10,000 cells/well using a Multidrop Combi (Thermo Labsystems) in white optical 384-well plates (Corning Life Sciences). After overnight incubation, medium was removed and 50 μL RPMI containing the treated compound, 1% FBS and a combination of cytokines (10 ng/mL IL-1β, 50 ng/mL IFN-γ, 25 ng/mL TNF-α) was added to every well. After incubation for 48 hr, medium was removed and 20 μL CellTiter-Glo reagent was added. Luminescence was measured after 10-min incubation using an EnVision plate reader (PerkinElmer).

[2] = tested on: INS-1E cells; assay: Caspase-3 activity assay (Caspase-Glo 3/7) in cytokine-treated INS-1E cells; format: cell-based, rat; details: cytokines, 48 h, Caspase-Glo 3/7
Method: INS-1E cells were seeded at 5,000 cells per well in white optical 384-well plates and treated as described for highthroughput screening. After treatment with cytokines and compounds for 48 h, medium was removed and 20 μL Caspase-Glo 3/7 reagent was added. Luminescence was measured after 2 h of incubation using an EnVision plate reader.

[3] = tested on: beta cells; details: HDAC inhibition, presumably by decreasing NF-κB transactivation; cited from earlier work
[4] = INS-1E cells, cytokines IL-1β, IFN-γ, TNF-α, 48 h, CellTiter-Glo, read-out: CTG EC50 in HTS

SMILES	EC50 [1, 4]	EC50 [2]	also measured
C[C@@H]1CN([C@@H](C)CO)C(=O)c2cccc(NC(=O)Nc3cccc4ccccc34)c2O[C@H]1CN(C)S(=O)(=O)c1ccccc1 [Compound 4A]	> 25 µM	> 25 µM	–
COc1ccc(S(=O)(=O)N(C)C[C@@H]2Oc3c(NC(=O)Nc4cc(F)ccc4F)cccc3C(=O)N([C@@H](C)CO)C[C@H]2C)cc1 [Compound 41A]	> 25 µM	> 25 µM	–
O=C(CCCCCCC(=O)Nc1ccccc1)NO [SAHA, suberoylanilide hydroxamic acid]	–	–	cytokine-induced beta-cell death [3]: can prevent cytokine-induced beta-cell death
C[C@@H]1CN([C@@H](C)CO)C(=O)c2cccc(NC(=O)Nc3cccc4ccccc34)c2O[C@H]1CN(C)S(=O)(=O)c1ccc(F)cc1 [Compound 6A]	> 25 µM	> 25 µM	–
C[C@@H]1CN([C@@H](C)CO)C(=O)c2cccc(NC(=O)Nc3cccc4ccccc34)c2O[C@H]1CN(C)S(=O)(=O)c1ccc2c(c1)oc(=O)n2C [Compound 15A]	> 25 µM	> 25 µM	–
C[C@@H]1CN([C@@H](C)CO)C(=O)c2cccc(NC(=O)Nc3ccc(F)cc3)c2O[C@H]1CN(C)S(=O)(=O)c1ccc(F)cc1 [Compound 38A]	> 25 µM	> 25 µM	–
COc1ccc(S(=O)(=O)N(C)C[C@@H]2Oc3c(NC(=O)Nc4cccc5ccccc45)cccc3C(=O)N([C@@H](C)CO)C[C@H]2C)c(OC)c1 [Compound 19A]	> 25 µM	> 25 µM	–
COc1ccc(S(=O)(=O)N(C)C[C@@H]2Oc3c(NC(=O)c4cccc5ccccc45)cccc3C(=O)N([C@@H](C)CO)C[C@H]2C)cc1 [Compound 35A]	> 25 µM	> 25 µM	–
COc1ccc(S(=O)(=O)N(C)C[C@@H]2Oc3c(NC(=O)Nc4cccc5ccccc45)cccc3C(=O)N([C@@H](C)CO)C[C@H]2C)cc1 [Compound 1A, N-(((2R,3R)-5-((S)-1-hydroxypropan-2-yl)-3-methyl-10-(3-(naphthalen-1-yl)ureido)-6-oxo-3,4,5,6-tetrahydro-2H-benzo[b][1,5]oxazocin-2-yl)methyl)-4-methoxy-N-methylbenzenesulfonamide]	–	–	EC50 ([1]; Rattus norvegicus, INS-1E, assay not named, read-out: EC50): 0.423 µM; IC50 ([1]; Rattus norvegicus, INS-1E, read-out: IC50, inhibition of cytokine-induced beta cell apoptosis): 4.9 µM; EC50 ([1]; Rattus norvegicus, INS-1E cells, cytokines IL-1β, IFN-γ, TNF-α, 48 h, CellTiter-Glo, read-out: CTG EC50 in HTS): > 0.1 µM; EC50 ([2]; Rattus norvegicus): > 0.1 µM
COc1ccc(S(=O)(=O)N(C)C[C@@H]2Oc3c(NC(=O)Nc4cccc5ccccc45)cccc3C(=O)N([C@@H](C)CO)C[C@H]2C)cc1F [Compound 10A]	> 20 µM	> 25 µM	–
C[C@@H]1CN([C@@H](C)CO)C(=O)c2cccc(NC(=O)Nc3cccc4ccccc34)c2O[C@H]1CN(C)S(=O)(=O)c1ccc2c(n1)N(C)CCO2 [Compound 26A]	> 25 µM	> 25 µM	–
CC(/C=C/C(=O)NO)=C\[C@@H](C)C(=O)c1ccc(N(C)C)cc1 [TSA, trichostatin A]	–	–	cytokine-induced beta-cell death [3]: can prevent cytokine-induced beta-cell death
COc1ccc(S(=O)(=O)N(C)C[C@@H]2Oc3c(NC(=O)Nc4cccc(C(F)(F)F)c4)cccc3C(=O)N([C@@H](C)CO)C[C@H]2C)cc1 [Compound 42A]	> 25 µM	> 25 µM	–
